As usually defined, the Ki is the dissociation constant of the complex between target and ligand, obtained from inhibition or displacement.

The values that follow come from PMC4157337 (Peptides, 2013).

Assay [1] concerns the target neurolysin. The settings on record: cited from earlier work.
Assay [2] addresses TOP (thimet oligopeptidase). The settings on record: cited from earlier work.
In assay [3] the test system is Ang-(1-7) peptidase (CSF). In words: Inhibitor profile: [125I]-Ang-. The assay is classed as biochemical, sheep. The settings on record: text to Figure 1D-F; pooled CSF.
The subject of assay [4] is Ang-(1-7) peptidase (CSF). The conditions noted are these: sheep CSF, earlier study; cited from earlier work.
The target of assay [5] is neprilysin. The settings on record: no reference given; quoted as known selective inhibitor; cited from earlier work.
The conditions of assay [6]: cited from earlier work.
Assay [7] has as its system Ang-(1-7) peptidase (CSF). The assay is described as follows: Peptidase kinetics. The assay is classed as biochemical. The conditions noted are these: sheep CSF, control and BMX; product [125I]-Ang-(1-4).
The test system of assay [8] is Ang-(1-7) peptidase (CSF). The assay is described as follows: pH profile of [125I]-Ang-. The assay is classed as biochemical, sheep. The settings on record: pH 5 to 8.5; N = 3.
Assay [9] concerns Ang-(1-7) peptidase (CSF). The assay is described as follows: Competition of peptides for conversion of [125I]-Ang-. The conditions noted are these: pooled CSF, inhibitor cocktail, 120 min, 37°C; Figure 4.

In the case of “1-carboxy-3-phenyl-propyl (Ala-Ala-Phe-4-Abz-OH [CFP]”, the results for the Ki in assay [1] and in assay [2] were 4000 nM and 180 nM, respectively. In assay [3], the “attenuation of metabolism of Ang-(1-7) to Ang-(1-4), in words” value (“attenuation” for short) was “failed to attenuate”.
On to `O=C(O)c1cc[c]([Hg][Cl])cc1` [PCMB, p-chloromercuribenzoic acid], for which the “conversion of Ang-(1-7) to Ang-(1-4) in CSF, in words” value in [4] is recorded as “abolished”.
In the case of `O=C(O)C(O)CNC(=O)[C@H](Cc1ccccc1)NC(CCc1ccccc1)C(=O)O` (stereo partly drawn) [SCH39370], the Ki in assay [5] was 11 nM. In addition, the “attenuation” value in assay [3] is “failed to attenuate”.
Consider `C[C@H]1C[C@H]2[C@@H]3CCC4=CC(=O)C=C[C@]4(C)[C@@]3(F)[C@@H](O)C[C@]2(C)[C@@]1(O)C(=O)CO` [betamethasone], for which the “ACE2 activity in renal cortex, isolated tubules and urine, in words” value in [6] (BMX sheep) was “lower”. Also, in [6] (adult BMX offspring), the “ACE2 activity in the circulation, in words” value is reported as “decreased” and the “soluble ACE activity in the circulation, in words” value is “increased”. Also, the “MAP, in words” value in assay [6] (antenatal exposure, by 6 months of age) is given as “elevated MAP”. In assay [6] (antenatal exposure, by 6 weeks), the “baroreflex sensitivity (BRS), in words” value is on record as “decreased BRS”.
With Pro-Ile, the Ki in assay [1] was 90000 nM. For the same compound, the “sensitivity of neurolysin forms to inhibition, in words” value in [1] (cytosolic and mitochondrial forms) is reported as “sensitive to Pro-Ile inhibition”. Besides, the “attenuation” value in [3] is listed as “failed to attenuate”.
Regarding “[^125I]-Ang-(1-7): iodinated Ang-(1-7), substrate; chloramine T method”, the site of hydrolysis entry in assay [7] is recorded as “Tyr^4-Ile^5 bond”. Moreover, the “conversion in BMX versus control CSF, in words” value in assay [8] is listed as “higher activity than the control”.
Consider neurotensin, for which, in assay [9], the “extent of inhibition of enzyme activity over the concentration range” value was 15% and the “extent of inhibition of enzyme activity, in words” value is listed as “poor competitor”.
